Experimental findings from PubChem BioAssay AID212 (DTP/NCI, 2004) are described below.

Several values for one entry are separate records, joined by “and”; a condition that tells them apart may be missing. Equal values may be shown once. Inconclusive results are not listed.

The subject of this assay is BDF1 mice, colon carcinoma 38 sc, T/C %. Briefly: NCI In Vivo Anticancer Drug Screen. Data for tumor model Colon Carcinoma 38 (subcutaneous) in B6D2F1 (BDF1) mice. The following applies: endpoint: median tumor weight (est.), higher = larger tumour. The procedure: The antitumor activity of compounds was measured in mice bearing transplantable tumors. Survival or tumor size were measured and the results are expressed as the measurement made in the treated group (T) divided by the measurement made in the vehicle treated control group (C). The tumor model used in this assay is Colon Carcinoma 38 (subcutaneous) in B6D2F1 (BDF1) mice

The mark [1] stands for this setting: dose: 100.0 mg/kg/injection, schedule: Q07DX002 (ip), vehicle: saline.
The mark [2] stands for this setting: dose: 200.0 mg/kg/injection, schedule: Q07DX002 (ip), vehicle: saline.
The mark [3] stands for this setting: dose: 6.25 mg/kg/injection, schedule: Q07DX002 (ip), vehicle: saline with Tween-80.
Where [4] appears, read: dose: 12.5 mg/kg/injection, schedule: Q07DX002 (ip), vehicle: saline with Tween-80.
The mark [5] stands for this setting: dose: 100.0 mg/kg/injection, schedule: Q07DX002 (ip), vehicle: saline with Tween-80.
Where [6] appears, read: dose: 200.0 mg/kg/injection, schedule: Q07DX002 (ip), vehicle: saline with Tween-80.
[7] abbreviates: dose: 400.0 mg/kg/injection, schedule: Q07DX002 (ip), vehicle: saline with Tween-80.
The mark [8] stands for this setting: dose: 25.0 mg/kg/injection, schedule: Q07DX002 (ip), vehicle: saline with Tween-80.
[9] abbreviates: dose: 50.0 mg/kg/injection, schedule: Q07DX002 (ip), vehicle: saline with Tween-80.

For the compound `C[C@]12CC[C@H]3[C@@H](CCC4=C[C@@H](OC5OCC(OC6OC(CO)C(O)C(O)C6O)C(O)C5O)CC[C@@]43C=O)[C@@]1(O)CCC2C1=CC(=O)OC1` (stereo partly drawn), the T/C is 106 % of control (dose: 0.31 mg/kg/injection, schedule: Q07DX003 (ip), vehicle: Klucel (hydroxypropylcellulose) (HPC)); 53 % of control (dose: 1.25 mg/kg/injection, schedule: Q07DX003 (ip), vehicle: Klucel (hydroxypropylcellulose) (HPC)); 102 % of control (dose: 2.5 mg/kg/injection, schedule: Q07DX003 (ip), vehicle: Klucel (hydroxypropylcellulose) (HPC)); 105 % of control (dose: 5.0 mg/kg/injection, schedule: Q07DX003 (ip), vehicle: Klucel (hydroxypropylcellulose) (HPC)); 95 % of control (dose: 10.0 mg/kg/injection, schedule: Q07DX003 (ip), vehicle: Klucel (hydroxypropylcellulose) (HPC)).

For the compound `OCC1OC(n2cnc3c(Cl)ncnc32)C(O)C1O` (stereo not drawn), the T/C (dose: 1600.0 mg/kg/injection, schedule: Q07DX002 (ip), vehicle: saline) was 82 % of control.

As to `Oc1cc2c3c(c1)c1cc4c(cc1c[n+]3CC2)OCO4`, the T/C runs as follows: (dose: 3.12 mg/kg/injection, schedule: Q07DX002 (ip), vehicle: water) 102 % of control; (dose: 6.25 mg/kg/injection, schedule: Q07DX002 (ip), vehicle: water) 77 % of control and 95 % of control; (dose: 25.0 mg/kg/injection, schedule: Q07DX002 (ip), vehicle: water) 71 % of control; (dose: 50.0 mg/kg/injection, schedule: Q07DX002 (ip), vehicle: water) 67 % of control and 71 % of control.

Regarding `CN(C)N=Nc1cn[nH]c1C(N)=O`, the T/C (dose: 6.25 mg/kg/injection, schedule: Q07DX002 (ip), vehicle: Klucel (hydroxypropylcellulose) (HPC)) is 102 % of control.

Regarding `Cc1cc2c(=O)cc(-c3ccccc3Cl)oc2c(C(=O)O)c1C`, the T/C (dose: 100.0 mg/kg/injection, schedule: Q07DX002 (ip), vehicle: sodium bicarbonate) was 56 % of control; the T/C (dose: 200.0 mg/kg/injection, schedule: Q07DX002 (ip), vehicle: sodium bicarbonate) was 35 % of control; the T/C (dose: 400.0 mg/kg/injection, schedule: Q07DX002 (ip), vehicle: sodium bicarbonate) was 40 % of control.

For the compound `CC(C)NCC(O)COc1ccc(O)c(O)c1` (stereo not drawn), the T/C is, setting by setting: under setting [1], 121 % of control; under setting [2], 93 % of control.

`O=C(O)[C@H](Cc1ccccc1)N1C(=O)c2ccccc2C1=O`: the T/C was 98 % of control (dose: 50.0 mg/kg/injection, schedule: Q07DX002 (ip), vehicle: DMSO) and 108 % of control (dose: 100.0 mg/kg/injection, schedule: Q07DX002 (ip), vehicle: DMSO).

With `c1cnc2ncncc2n1`, the T/C by setting is: under setting [3], 88 % of control; under setting [4], 83 % of control and 95 % of control; under setting [5], 80 % of control and 89 % of control; under setting [1], 124 % of control; under setting [6], 73 % of control and 88 % of control; under setting [2], 181 % of control.

Take `CC(Oc1ccccc1-c1ccccc1)C(=O)N(C)C` (stereo not drawn): the T/C reads like this: under setting [5], 79 % of control and 82 % of control; under setting [6], 74 % of control and 78 % of control; under setting [7], 56 % of control and 75 % of control; (dose: 800.0 mg/kg/injection, schedule: Q07DX002 (ip), vehicle: saline with Tween-80) 49 % of control and 68 % of control.

Regarding `O=Cc1ccc([N+](=O)[O-])s1`, the T/C by setting is: under setting [3], 124 % of control and 108 % of control; under setting [8], 108 % of control; under setting [9], 57 % of control.

As to `C=CC(C)(C)n1cc(C2=C(O)C(=O)C(c3cn(C(C)(C)C=C)c4ccccc34)=C(O)C2=O)c2ccccc21`, the T/C reads like this: (dose: 5.0 mg/kg/injection, schedule: Q07DX002 (ip), vehicle: Klucel (hydroxypropylcellulose) (HPC)) 67 % of control and 79 % of control; (dose: 10.0 mg/kg/injection, schedule: Q07DX002 (ip), vehicle: Klucel (hydroxypropylcellulose) (HPC)) 66 % of control and 82 % of control; (dose: 20.0 mg/kg/injection, schedule: Q07DX002 (ip), vehicle: DMSO) 87 % of control; (dose: 40.0 mg/kg/injection, schedule: Q07DX002 (ip), vehicle: DMSO) 101 % of control; (dose: 80.0 mg/kg/injection, schedule: Q07DX002 (ip), vehicle: DMSO) 41 % of control; (dose: 80.0 mg/kg/injection, schedule: Q07DX002 (ip), vehicle: Klucel (hydroxypropylcellulose) (HPC)) 79 % of control and 81 % of control. The T/C (dose: 160.0 mg/kg/injection, schedule: Q07DX002 (ip), vehicle: Klucel (hydroxypropylcellulose) (HPC)) is 57 % of control and 70 % of control.

In the case of `CN=C(N)N/N=C(\c1ccccc1)c1ccc(Br)cc1`, the T/C is, setting by setting: (dose: 3.0 mg/kg/injection, schedule: Q07DX002 (ip), vehicle: saline with Tween-80) 152 % of control; under setting [3], 169 % of control; under setting [4], 156 % of control; under setting [9], 96 % of control.

For the compound `OC1(CSc2ccccc2)CCCCC1`, the T/C under setting [8] was 93 % of control; the T/C under setting [9] is 47 % of control; the T/C under setting [5] was 97 % of control; the T/C under setting [6] was 87 % of control; the T/C under setting [7] was 77 % of control.

Regarding `NNC(=S)N/N=C/c1ccccn1`, the T/C reads like this: (dose: 3.12 mg/kg/injection, schedule: Q07DX002 (ip), vehicle: suspension in saline) 84 % of control; (dose: 6.25 mg/kg/injection, schedule: Q07DX002 (ip), vehicle: suspension in saline) 49 % of control; (dose: 12.5 mg/kg/injection, schedule: Q07DX002 (ip), vehicle: suspension in saline) 77 % of control; (dose: 25.0 mg/kg/injection, schedule: Q07DX002 (ip), vehicle: suspension in saline) 75 % of control; (dose: 50.0 mg/kg/injection, schedule: Q07DX002 (ip), vehicle: suspension in saline) 64 % of control.

In the case of `S=C(Nc1ccc(Cl)c(Cl)c1)N1c2ccccc2-n2cccc2C1c1cccnc1` (stereo not drawn), the T/C is, setting by setting: (dose: 50.0 mg/kg/injection, schedule: Q07DX002 (ip), vehicle: Klucel (hydroxypropylcellulose) (HPC)) 83 % of control; (dose: 200.0 mg/kg/injection, schedule: Q07DX002 (ip), vehicle: Klucel (hydroxypropylcellulose) (HPC)) 113 % of control and 95 % of control; (dose: 400.0 mg/kg/injection, schedule: Q07DX002 (ip), vehicle: Klucel (hydroxypropylcellulose) (HPC)) 101 % of control.

`COc1cc([C@@H]2c3cc4c(cc3[C@@H](OC3OC5CO[C@@H](c6cccs6)OC5C(O)C3O)[C@H]3COC(=O)[C@H]23)OCO4)cc(OC)c1O` (stereo partly drawn): the T/C reads like this: (dose: 1.0 mg/kg/injection, schedule: Q07DX002 (ip), vehicle: suspension in saline) 88 % of control; (dose: 2.0 mg/kg/injection, schedule: Q07DX002 (ip), vehicle: suspension in saline) 113 % of control and 100 % of control; (dose: 4.0 mg/kg/injection, schedule: Q07DX002 (ip), vehicle: suspension in saline) 63 % of control and 75 % of control.
